# Like-named read-outs stand apart in the source and are kept apart here.
# Columns and labels:
# cholestatic disorders = details: cited from earlier work
# in vivo = experiment: in vivo; design: species or system male Sprague-Dawley rats; details: rat
# Procedure: Rats were divided into two treatment groups. One group was pretreated with parenteral Vitamin E (all-rac-alpha tocopherol, […], Hoffmann-LaRoche,Nutley, N.J.). The other group was not pretreated. These rats then received either vehicle or TCDC (10 μmol/[…]) by tail vein injection (as described in Example 1). […] All i.p. injections were administered under light methoxyflurane anesthesia. Following the vitamin E or saline injections, rats were randomly assigned to receive a tail vein bolus injection of either TCDC or vehicle. Rats were sacrificed four hours later and serum was analyzed for AST, ALT, total bilirubin and alkaline phosphatase. […] The serum alpha tocopherol:total lipids ratio (mg/gm) was calculated as an additional index of vitamin E status^41. The liver was rapidly removed at sacrifice, the hepatic mitochondria were isolated as set forth above and analyzed for lipid-conjugated dienes as described above. A specimen of liver was also immediately frozen, protected from light and stored at -70° C. and subsequently analyzed for alpha tocopherol and reduced ubiquinol-9 by HPLC with electrochemical detection^42. The results were expressed as nmol alpha tocopherol or nmol reduced ubiquinol-9 per gram wet weight of liver.
# hepatic mitochondria = experiment: Lipid-conjugated dienes of hepatic mitochondria (lipid peroxidation); format: in vivo, male Sprague-Dawley rats; details: for Lipid-conjugated dienes: 4 h
# Procedure: Hepatic Mitochondria Isolation
# Mitochondria were isolated from 10 grams of fresh liver from individual rats by a modification of a previously described method^27. Briefly, the liver was gently homogenized in a loose-fitting Potter-Elvehjm homogenizer in buffer containing 225 mM mannitol, 70 mM sucrose, 3 mM KH2 PO4, 2mM EDTA, 0.1% BSA, 5 mM MgCl2 (pH 7.0), filtered through cheesecloth and centrifuged at 400g×10 minutes. The supernatant was centrifuged at 10,000g for 10 minutes. The supernatant was aspirated and the pellet resuspended and centrifuged at 10,000g for 10 minutes. The resulting mitochondrial pellet was resuspended in 15 ml of buffer, divided into three tubes and added to digitonin (Sigma Chemical Company, St Louis, Mo., 0.29 mg for each gram of original liver) on wet ice×20 minutes, in order to minimize any contamination by lysosomes^28. The resulting mitochondrial preparation was washed two times in the original buffer and centrifuged at 10,000g for 10 minutes. Samples of the pellet were taken for enzyme marker analysis. Two more washes were then performed using a buffer containing 50 mM MOPS/100 mM KCI, yielding the final mitochondrial pellet.
# Fresh mitochondria were analyzed for lipid peroxidation as an index of oxidant damage by the lipid-conjugated diene method of Recknagel and Ghoshal^35 with the modification of Bacon et al^36. Briefly, lipids were extracted from mitochondria pellets with chloroform and methanol (2:1, vol/vol), and the lipid in chloroform was dried under a stream of oxygen-free nitrogen^27. The dried lipid was redissolved in 1.5 ml of spectrophotometric grade cyclohexane. Absorbance from 220 to 275 nm was recorded against a cyclohexane blank on a Lambda 2 UV/is Spectrometer (Perkin-Elmer Corp., Norwalk, Conn.). Lipid concentration was approximately 0.5 mg/mi of cyclohexane. After the UV measurements, a 250 μl aliquot from each sample was analyzed for total lipid content by the method of Chiang et al.^37, and absorbance measurements were normalized to a denominator of 1.0 mg lipid per ml of cyclohexane. Lipid peroxidation was estimated by calculating the difference in absorption at 233 nm (the peak absorbance for conjugated dienes) between each rat and the mean of the values from control rats.
# Because serum AST and ALT concentrations peaked at 4 hours, further evaluation of liver injury was performed at that time point Total concentrations (conjugated+free bile acids) of individual bile acids were measured in serum obtained at 4 hours by gas chromatography-mass spectroscopy (GC-MS), as previously described^30. Briefly, after serum samples were extracted with the addition of the internal standard 7-alpha, 12-alpha, dihydroxy-5 beta cholanic acid, trimethylsilyl esterification was performed. Individual bile acids were then quantified by GC or GC-MS using a Hewlett-Packard 5790 flame ionization detector equipped with a 30 meter DB-1 capillary column with internal diameter of 0.25 mm and a film thickness of 0.25 micrometers (J & W Scientific, Folsom, Calif.). For GC-MS measurements, a Hewlett-Packard 5970-A mass selective detector operating in selective ion monitoring mode was used. Results were expressed as μmol/L for each individual bile acid.
# Rats were divided into two treatment groups. One group was pretreated with parenteral Vitamin E (all-rac-alpha tocopherol, Ephynal, Hoffmann-LaRoche,Nutley, N.J.). The other group was not pretreated. […]
# TCDC hepatic toxicity = format: in vivo, male Sprague-Dawley rats
# From the text: Young adult male Sprague-Dawley rats (150-180 gram weight) purchased from Sasco, Inc. (Omaha, Nebr.) were fed Purina Lab Chow (Ralston Purina Co., Chicago, Ill.) ad libitum for 2-3 weeks and housed in polyethylene cages with stainless steel tops on a 12-hour light-dark cycle. All rats received humane care in compliance with the guidelines of the Animal Use in Research Committee of the University of Colorado Health Sciences Center. […] TCDC is a conjugate of the bile acid most implicated in cholestatic liver injury9,11,12. TCDC was solubilized in 5% dextrose, 10% BSA, and 0.45% normal saline. TCDC was administered while rats were under light methoxyflurane anesthesia as an intravenous bolus of the desired dose in 1 to 2 minutes through the tail vein. TCDC dosing was performed between 7 and 9 am. […] Rats were divided into two treatment groups. One group was pretreated with parenteral Vitamin E (all-rac-alpha tocopherol, […], Hoffmann-LaRoche,Nutley, N.J.). The other group was not pretreated. These rats then received either vehicle or TCDC (10 μmol/[…]) by tail vein injection (as described in Example 1). […] All i.p. injections were administered under light methoxyflurane anesthesia. Following the vitamin E or saline injections, rats were randomly assigned to receive a tail vein bolus injection of either TCDC or vehicle. Rats were sacrificed four hours later and serum was analyzed for AST, ALT, total bilirubin and alkaline phosphatase. […] The serum alpha tocopherol:total lipids ratio (mg/gm) was calculated as an additional index of vitamin E status^41.
# [1] = parenteral vitamin E pretreatment, rats receiving TCDC
"Hepatic alpha tocopherol concentrations, change (in vivo)","Serum vitamin E concentrations, change (in vivo)","Serum vitamin E:total lipid ratios, change (in vivo)",Serum alpha tocopherol (in vivo; 4 h) [µg/mL],concentration at 4 h (in vivo; Serum alpha tocopherol) [ng/mL],SMILES,Hepatoprotective and choleretic effects (cholestatic disorders),"Lipid-conjugated dienes (hepatic mitochondria; Vitamin E/TCDC, n = 12)","Lipid-conjugated dienes (hepatic mitochondria; Vitamin E/Vehicle, n = 7)","Mitochondrial lipid-conjugated dienes, change (hepatic mitochondria; vitamin E pretreatment, i.v. TCDC group)","ALT (TCDC hepatic toxicity; Vitamin E/TCDC, n = 12, 4 h) [IU/L]","AST (TCDC hepatic toxicity; Vitamin E/TCDC, n = 12, 4 h) [IU/L]","Bilirubin (TCDC hepatic toxicity; Vitamin E/TCDC, n = 12, 4 h) [mg/dL]",Decrease in serum ALT (TCDC hepatic toxicity; [1]),Decrease in serum AST (TCDC hepatic toxicity; [1]),"ALT (TCDC hepatic toxicity; rat, in vivo) [IU/L]","AST (TCDC hepatic toxicity; rat, in vivo) [IU/L]","Bilirubin (TCDC hepatic toxicity; rat, in vivo) [mg/dL]","Hepatic injury and mitochondrial lipid peroxidation, overall result (TCDC hepatic toxicity; vitamin E pretreatment, TCDC)"
,,,,,C[C@H](CCC(=O)O)[C@H]1CC[C@H]2[C@@H]3[C@@H](O)C[C@@H]4C[C@H](O)CC[C@]4(C)[C@H]3CC[C@]12C [ursodeoxycholic acid],hepatoprotective as well as choleretic effects,,,,,,,,,,,,
significant increases,significant increases,significant increases,13.2 ± 0.7,9900 ± 700,"Cc1c(C)c2c(c(C)c1O)CCC(C)(CCCC(C)CCCC(C)CCCC(C)C)O2 (racemic) [Vitamin E, all-rac-alpha tocopherol]",,0.13 ± 0.01 delta abs. 233 nm/mg lipid,-0.03 ± 0.02 delta abs. 233 nm/mg lipid,significant reduction,325 ± 78,870 ± 278,0.2 ± 0.02,approximately 70%,approximately 70%,61 ± 5,81 ± 2,0.2 ± 0.02,attenuated both the hepatic injury and the severity of mitochondrial lipid peroxidation
